Data set [1] relates to HCT-116 cells. As to the kind of experiment: HCT-116 growth inhibition. In kind it is cell-based.
In data set [2] the test system is HeLa nuclear extract HDACs (class I HDACs 1, 2, and 3). As to the kind of experiment: HeLa nuclear extract HDAC inhibition. In kind it is biochemical. The following applies: HeLa cell nuclear protein extract. The source says: Largazole (21) inhibited HDAC activity from a HeLa cell nuclear protein extract rich in class I HDACs 1, 2, and 3 (BIOMOL); however, it is possible that the thioester is cleaved under assay conditions. To investigate that thiol 29 is a reactive species, we liberated 29 from the acetyl analog 28 of largazole (21) and measured enzymatic activity directly; thiol […] inhibited the HDACs in the nuclear extract of HeLa cells with a similar IC50 value (Table 3).

The subject of data set [3] is HDAC. As to the kind of experiment: HCT-116 HDAC cellular assay (Fluor de Lys substrate). In kind it is cell-based. The following applies: HCT-116, 8 h, fluorogenic HDAC substrate.
Data set [4] concerns NIH3T3 cells. Type of data set: cell-based. The following applies: NIH3T3, 48 h, MTT. How it is done:
Cell culture medium was purchased from Invitrogen and fetal bovine serum (FBS) from Hyclone. Cells were propagated and maintained in DMEM medium (high glucose) supplemented with 10% FBS at 37° C. humidified air and 5% CO2.
Cells suspended in DMEM containing 10% FBS were plated in 96-well plates (MDA-MB-231: 12,000 cells; NMuMG: 5,000 cells; U2OS: 5,000 cells; HT29: 10,000 cells; IMR-32: 30,000 cells; NIH3T3: 5,000 cells) incubated (37° C., 5% CO2) and 24 h later treated with various concentrations of compound 21 or solvent control (1% EtOH). After another 48 h of incubation, cell viability was measured using MTT according to manufacturer's instructions (Promega).
MDA-MB-231 and NMuMG cells were also treated with paclitaxel (in DMSO), actinomycin D (in DMSO) and doxorubicin (in H2O) and corresponding solvent control (1%) in the same manner. GI50 and LC50 values were calculated as previously described (K. D. Paull, E. Hamel, L. Malspeis, In Cancer Chemotherapeutic Agents, W. E. Foye, Ed., American Chemical Society, Washington, D.C., 1995, pp. 10-11).
[formula] [T=absorbance in treated wells (48 h); T0=absorbance at time zero; C=absorbance in control wells (48 h)]

Two compounds from US8759512B2, “Methods of preparation of macrocyclic compounds” (University of Florida Research Foundation, Inc., priority 2008, dated 2014) can be followed below.

SMILES strings stand for the structures.

As a reminder, the GI50 is the concentration at which growth is held to half of that of the control. For orientation: IC50 means the concentration at which inhibition is half-maximal.

As for `CC(=O)SCC/C=C/[C@@H]1CC(=O)NCc2nc(cs2)C2=N[C@@](C)(CS2)C(=O)N[C@@H](C(C)C)C(=O)O1` [Compound 28], in data set [1], the GI50 amounted to 33 ± 2 nM. Besides, the IC50 in data set [2] amounted to 52 ± 27 nM; in data set [3] it was 50 ± 18 nM.
With `CCCCCCCC(=O)SCC/C=C/[C@@H]1CC(=O)NCc2nc(cs2)C2=N[C@@](C)(CS2)C(=O)N[C@@H](C(C)C)C(=O)O1` [Compound 21, Largazole], the “toxicity (cytotoxicity)” value in data set [4] is reported as “no apparent toxicity”.
